Data: patent US20230085307A1, “PYRIDAZINONE COMPOUND AND HERBICIDE” (NISSAN CHEMICAL CORPORATION, priority 2019, published 2023)

Key:
beet [1] = experiment: Test Example 4: effect on crop by soil treatment (Table 19, symbol f); type: in vivo; conditions: amount of applied herbicide 320 g/ha
Text: (§1) [Test Example 4] Herbicidal Effect Test by Soil Treatment
(§2) Sterilized diluvial soil was placed in a plastic box having a length of 21 cm, a width of 13 cm, and a depth of 7 cm. The seeds of each of southern crabgrass, green foxtail, barnyard grass, wild oat, blackgrass, Italian ryegrass, windgrass, velvetleaf, redroot pigweed, lambsquarters, chickweed, false cleavers, persian speedwell, corn, soybean, rice, wheat, beet, and rapeseed were sowed in a spot-like manner and covered with the soil having a thickness of about 1.5 cm. Subsequently, the emulsion agent of the compound of the present invention prepared according to Formulation Example 2 was diluted with water so as to achieve a predetermined herbicide amount, and the diluted emulsion agent was uniformly applied to the surface of the soil with a small-sized spray. The plastic box was placed in a greenhouse at 25° C. to 30° C. for growth of the plants. Three weeks after the herbicide application, the effect of the herbicide on each plant was evaluated according to the criteria of Test Example 1.

rapeseed [2] = experiment: Test Example 4: effect on crop by soil treatment (Table 19, symbol g); type: in vivo; conditions: amount of applied herbicide 320 g/ha
Text: as §1, §2

southern crabgrass = experiment: Test Example 5: herbicidal effect by foliage application, plastic box (Table 20, symbol F); type: in vivo, southern crabgrass (Digitaria ciliaris); conditions: foliage application, 320 g/ha, evaluated three weeks after application
In short: (§3)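 Foliar spray test: emulsion formulation diluted in water to a set application rate, sprayed onto 14-day-old plants raised in diluvial soil at 25° C to 30° C under glass. Both herbicidal effect and crop effect rated visually three weeks later.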

green foxtail = experiment: Test Example 5: herbicidal effect by foliage application, plastic box (Table 20, symbol G); type: in vivo, green foxtail (Setaria viridis); conditions: foliage application, 320 g/ha, evaluated three weeks after application
In short: as §3

barnyard grass = experiment: Test Example 5: herbicidal effect by foliage application, plastic box (Table 20, symbol H); type: in vivo, barnyard grass (Echinochloa crus-galli); conditions: foliage application, 320 g/ha, evaluated three weeks after application
In short: as §3

wild oat = experiment: Test Example 5: herbicidal effect by foliage application, plastic box (Table 20, symbol I); type: in vivo, wild oat (Avena fatua); conditions: foliage application, 320 g/ha, evaluated three weeks after application
In short: as §3

blackgrass = experiment: Test Example 5: herbicidal effect by foliage application, plastic box (Table 20, symbol J); type: in vivo, blackgrass (Alopecurus myosuroides); conditions: foliage application, 320 g/ha, evaluated three weeks after application
In short: as §3

Italian ryegrass = experiment: Test Example 5: herbicidal effect by foliage application, plastic box (Table 20, symbol K); type: in vivo, Italian ryegrass (Lolium multiflorum); conditions: foliage application, 320 g/ha, evaluated three weeks after application
In short: as §3

windgrass = experiment: Test Example 5: herbicidal effect by foliage application, plastic box (Table 20, symbol L); type: in vivo, windgrass (Apera spica-venti); conditions: foliage application, 320 g/ha, evaluated three weeks after application
In short: as §3

velvetleaf = experiment: Test Example 5: herbicidal effect by foliage application, plastic box (Table 20, symbol M); type: in vivo, velvetleaf (Abutilon theophrasti); conditions: foliage application, 320 g/ha, evaluated three weeks after application
In short: as §3

redroot pigweed = experiment: Test Example 5: herbicidal effect by foliage application, plastic box (Table 20, symbol N); type: in vivo, redroot pigweed (Amaranthus retroflexus); conditions: foliage application, 320 g/ha, evaluated three weeks after application
In short: as §3

lambsquarters = experiment: Test Example 5: herbicidal effect by foliage application, plastic box (Table 20, symbol O); type: in vivo, lambsquarters (Chenopodium album); conditions: foliage application, 320 g/ha, evaluated three weeks after application
In short: as §3

chickweed = experiment: Test Example 5: herbicidal effect by foliage application, plastic box (Table 20, symbol P); type: in vivo, common chickweed (Stellaria media); conditions: foliage application, 320 g/ha, evaluated three weeks after application
In short: as §3

persian speedwell = experiment: Test Example 5: herbicidal effect by foliage application, plastic box (Table 20, symbol R); type: in vivo, Persian speedwell (Veronica persica); conditions: foliage application, 320 g/ha, evaluated three weeks after application
In short: as §3

corn = experiment: Test Example 5: effect on crop by foliage application, plastic box (Table 20, symbol c); type: in vivo; conditions: 320 g/ha, evaluated three weeks after application
Text: (§4) [Test Example 5] Herbicidal Effect Test by Foliage Application
as §2, with “Thereafter, the plants were grown in a greenhouse at 25° C. to 30° C. After 14-day growth of the plants,” for “Subsequently,”, “a foliage part” for “the surface of the soil”, “spray.” for “spray. The plastic box was placed in a greenhouse at 25° C. to 30° C. for growth of the plants.”

soybean = experiment: Test Example 5: effect on crop by foliage application, plastic box (Table 20, symbol d); type: in vivo; conditions: 320 g/ha, evaluated three weeks after application
Text: as §4
as §2, with “Thereafter, the plants were grown in a greenhouse at 25° C. to 30° C. After 14-day growth of the plants,” for “Subsequently,”, “a foliage part” for “the surface of the soil”, “spray.” for “spray. The plastic box was placed in a greenhouse at 25° C. to 30° C. for growth of the plants.”

wheat = experiment: Test Example 5: effect on crop by foliage application, plastic box (Table 20, symbol e); type: in vivo; conditions: 320 g/ha, evaluated three weeks after application
Text: as §4
as §2, with “Thereafter, the plants were grown in a greenhouse at 25° C. to 30° C. After 14-day growth of the plants,” for “Subsequently,”, “a foliage part” for “the surface of the soil”, “spray.” for “spray. The plastic box was placed in a greenhouse at 25° C. to 30° C. for growth of the plants.”

beet [3] = experiment: Test Example 5: effect on crop by foliage application, plastic box (Table 20, symbol f); type: in vivo; conditions: 320 g/ha, evaluated three weeks after application
Text: as §4
as §2, with “Thereafter, the plants were grown in a greenhouse at 25° C. to 30° C. After 14-day growth of the plants,” for “Subsequently,”, “a foliage part” for “the surface of the soil”, “spray.” for “spray. The plastic box was placed in a greenhouse at 25° C. to 30° C. for growth of the plants.”

rapeseed [4] = experiment: Test Example 5: effect on crop by foliage application, plastic box (Table 20, symbol g); type: in vivo; conditions: 320 g/ha, evaluated three weeks after application
Text: as §4
as §2, with “Thereafter, the plants were grown in a greenhouse at 25° C. to 30° C. After 14-day growth of the plants,” for “Subsequently,”, “a foliage part” for “the surface of the soil”, “spray.” for “spray. The plastic box was placed in a greenhouse at 25° C. to 30° C. for growth of the plants.”

melting point: 182 to 184 °C
SMILES: COc1ccccc1-c1sc2ccc(C3CC3)cc2c1-c1c(O)c(C)nn(C)c1=O [Compound No. 2-160, 4-(5-cyclopropyl-2-(2-methoxyphenyl)benzo[b]thiophen-3-yl)-5-hydroxy-2,6-dimethylpyridazin-3(2H)-one]
f: beet, effect on crop rating (beet [1]): 0 (Herbicidal rate of 5% or less (almost no effect))
g: rapeseed, effect on crop rating (rapeseed [2]): 1 (Herbicidal rate of 5% or more and less than 20%)
herbicidal effect on F: southern crabgrass (criteria 0-5) (southern crabgrass): 0 (Herbicidal rate of 5% or less (almost no effect))
herbicidal effect on G: green foxtail (criteria 0-5) (green foxtail): 4 (Herbicidal rate of 70% or more and less than 90%)
herbicidal effect on H: barnyard grass (criteria 0-5) (barnyard grass): 4 (Herbicidal rate of 70% or more and less than 90%)
herbicidal effect on I: wild oat (criteria 0-5) (wild oat): 0 (Herbicidal rate of 5% or less (almost no effect))
herbicidal effect on J: blackgrass (criteria 0-5) (blackgrass): 4 (Herbicidal rate of 70% or more and less than 90%)
herbicidal effect on K: Italian ryegrass (criteria 0-5) (Italian ryegrass): 3 (Herbicidal rate of 40% or more and less than 70%)
herbicidal effect on L: windgrass (criteria 0-5) (windgrass): 5 (Herbicidal rate of 90% or more (almost completely withered))
herbicidal effect on M: velvetleaf (criteria 0-5) (velvetleaf): 4 (Herbicidal rate of 70% or more and less than 90%)
herbicidal effect on N: redroot pigweed (criteria 0-5) (redroot pigweed): 5 (Herbicidal rate of 90% or more (almost completely withered))
herbicidal effect on O: lambsquarters (criteria 0-5) (lambsquarters): 2 (Herbicidal rate of 20% or more and less than 40%)
herbicidal effect on P: chickweed (criteria 0-5) (chickweed): 5 (Herbicidal rate of 90% or more (almost completely withered))
herbicidal effect on R: persian speedwell (criteria 0-5) (persian speedwell): 5 (Herbicidal rate of 90% or more (almost completely withered))
effect on crop c: corn (criteria 0-5) (corn): 0 (Herbicidal rate of 5% or less (almost no effect))
effect on crop d: soybean (criteria 0-5) (soybean): 3 (Herbicidal rate of 40% or more and less than 70%)
effect on crop e: wheat (criteria 0-5) (wheat): 1 (Herbicidal rate of 5% or more and less than 20%)
effect on crop f: beet (criteria 0-5) (beet [3]): 5 (Herbicidal rate of 90% or more (almost completely withered))
effect on crop g: rapeseed (criteria 0-5) (rapeseed [4]): 5 (Herbicidal rate of 90% or more (almost completely withered))
